Here are results for 35 compounds from ChEMBL document CHEMBL1122086, “Comparison of the inhibition of Escherichia coli and Lactobacillus casei dihydrofolate reductase by 2,4-diamino-5-(substituted-benzyl)pyrimidines: quantitative structure-activity relationships, X-ray crystallography, and computer graphics in structure-activity analysis” (J Med Chem, 1982).

Assay [1] concerns the target Dihydrofolate reductase (Lactobacillus casei) (UniProt P00381). Particulars: Lacticaseibacillus casei.
Description: Inhibitory activity against dihydrofolate reductase (DHFR) from Lactobacillus casei (expressed as log 1/Kiapp)
For assay [2], the target named is T1, Dihydrofolate reductase (Escherichia coli) (UniProt P0ABQ4).
T1 sequence (whole entry): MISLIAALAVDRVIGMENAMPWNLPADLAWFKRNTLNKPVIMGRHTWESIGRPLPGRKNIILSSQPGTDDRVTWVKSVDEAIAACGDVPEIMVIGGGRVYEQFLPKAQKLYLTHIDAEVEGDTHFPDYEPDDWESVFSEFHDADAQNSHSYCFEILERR
Description: Inhibitory activity against dihydrofolate reductase (DHFR) from Escherichia coli (expressed as log 1/Kiapp)

Chain of Dihydrofolate reductase (Lactobacillus casei) (P00381 whole entry): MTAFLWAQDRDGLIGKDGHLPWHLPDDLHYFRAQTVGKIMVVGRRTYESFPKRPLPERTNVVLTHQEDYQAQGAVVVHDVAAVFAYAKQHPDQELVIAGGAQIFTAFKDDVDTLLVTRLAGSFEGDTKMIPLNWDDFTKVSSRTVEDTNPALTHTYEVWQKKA

In assay [1], `COc1ccc(Cc2cnc(N)nc2N)cc1OC` returned a Log 1/Ki app of 6.92.

On to `CCCCOCc1cccc(Cc2cnc(N)nc2N)c1`, for which the Log 1/Ki app in assay [1] was found to be 5.49.

The compound `Nc1ncc(Cc2cccc(O)c2)c(N)n1` displayed a Log 1/Ki app in assay [1] of 5.82.

In assay [1], `Nc1ncc(Cc2ccc(O)c(O)c2)c(N)n1` registered a Log 1/Ki app of 5.84.

Turning to `Nc1ccc(Cc2cnc(N)nc2N)cc1`, the Log 1/Ki app in assay [1] is 5.47.

In assay [1], `Nc1ncc(Cc2cc(CO)cc(CO)c2)c(N)n1` had a Log 1/Ki app of 5.73.

The compound `Nc1ncc(Cc2cccc(Br)c2)c(N)n1` showed a Log 1/Ki app in assay [1] of 6.23.

`Cc1cccc(Cc2cnc(N)nc2N)c1` yielded a Log 1/Ki app in assay [1] of 5.78.

For `CC(=O)Nc1ccc(Cc2cnc(N)nc2N)cc1`, in assay [1], the Log 1/Ki app was 6.05.

The compound `Nc1ncc(Cc2cc(O)cc(O)c2)c(N)n1` gave a Log 1/Ki app in assay [1] of 3.38.

For the compound `Nc1ncc(Cc2ccc(F)cc2)c(N)n1`, the Log 1/Ki app in assay [1] was 5.67.

As for `Nc1ncc(Cc2ccc(OC(F)(F)F)cc2)c(N)n1`, the Log 1/Ki app came out at 6.57 in assay [2] and 6.3 in assay [1].

As to `COCc1cccc(Cc2cnc(N)nc2N)c1`, the Log 1/Ki app in assay [1] was found to be 5.64.

In the case of `Nc1ncc(Cc2ccc(Br)cc2)c(N)n1`, the Log 1/Ki app in assay [1] was 6.21.

In assay [1], `CCCCOc1ccc(Cc2cnc(N)nc2N)cc1` gave a Log 1/Ki app of 6.37.

The compound `CN(C)c1ccc(Cc2cnc(N)nc2N)cc1` showed a Log 1/Ki app in assay [1] of 6.17.

`Nc1ncc(Cc2cccc(F)c2)c(N)n1` returned a Log 1/Ki app in assay [1] of 5.38.

For the compound `Nc1ncc(Cc2cccc(Cl)c2)c(N)n1`, the Log 1/Ki app in assay [1] was determined as 5.9.

In assay [1], `CCCCCCOc1ccc(Cc2cnc(N)nc2N)cc1` came in with a Log 1/Ki app of 5.73.

In assay [1], `Cc1ccc(Cc2cnc(N)nc2N)cc1` registered a Log 1/Ki app of 5.83.

As for `Nc1ncc(Cc2ccc([N+](=O)[O-])cc2)c(N)n1`, the Log 1/Ki app came to 6.2 in assay [2] and 6 in assay [1].

Turning to `COCCOc1c(OC)cc(Cc2cnc(N)nc2N)cc1OC`, in assay [1], the Log 1/Ki app was 6.26.

`Nc1ncc(Cc2cccc(I)c2)c(N)n1`: in assay [1], the Log 1/Ki app amounted to 6.67.

`Nc1ncc(Cc2cccc(CO)c2)c(N)n1` yielded a Log 1/Ki app in assay [1] of 5.67.

In turn, `Nc1ncc(Cc2cccc(C(F)(F)F)c2)c(N)n1` registered a Log 1/Ki app in assay [1] of 6.16.

Take `COCCOc1ccc(Cc2cnc(N)nc2N)cc1`: the Log 1/Ki app in assay [1] was 6.05.

As to `CS(=O)(=O)Oc1cccc(Cc2cnc(N)nc2N)c1`, the figures for the Log 1/Ki app in assay [2] and in assay [1] were 6.92 and 5.92, respectively.

`COc1ccc(Cc2cnc(N)nc2N)cc1C(F)(F)F`: the Log 1/Ki app was found to be 7.69 in assay [2] and 7.3 in assay [1].

In assay [1], `NC(=O)COc1cccc(Cc2cnc(N)nc2N)c1` registered a Log 1/Ki app of 5.96.

`CCCCCCCOc1ccc(Cc2cnc(N)nc2N)cc1` gave a Log 1/Ki app in assay [1] of 5.36.

With `CC(=O)Nc1ccc(Cc2cnc(N)nc2N)cc1[N+](=O)[O-]`, the Log 1/Ki app in assay [2] is 6.97; in assay [1] it was 6.

With `Nc1ncc(Cc2ccccc2)c(N)n1`, the Log 1/Ki app in assay [1] stood at 5.2.

`Nc1ncc(Cc2ccc(Cl)cc2)c(N)n1` showed a Log 1/Ki app in assay [1] of 6.19.

The compound `COCCOc1cccc(Cc2cnc(N)nc2N)c1` showed a Log 1/Ki app in assay [1] of 6.12.

In the case of `COCCOc1ccc(Cc2cnc(N)nc2N)cc1OCCOC`, the Log 1/Ki app in assay [1] was found to be 6.51.
